{
  "source": "patent US20230074545A1",
  "about": "“TREATMENT OF CANCER WITH CDK12/13 INHIBITORS” (Kinnate Biopharma Inc., priority 2019, published 2023)",
  "test_in_all_cases": "Radiometric kinase panel",
  "assay_type_in_all_cases": "biochemical",
  "key": {"AKT1": {"biological_target": "T1, AKT1 (Homo sapiens, UniProt P31749)", "T1 construct": "either as full-length or enzymatically active fragments; purchased ProQinase GmbH (Reaction Biology)", "in_short": "(§1)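 Activity was measured radiometrically from [gamma-33P]-ATP incorporation into substrate. The kinases were recombinant human GST- or His-tagged proteins, full-length or active fragments, expressed in Sf9 or E. coli. Compound in 10% DMSO was added before the enzyme/substrate mix, which started the reaction.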"}, "AuroraA": {"biological_target": "T2, AuroraA (Homo sapiens, UniProt O14965)", "T2 construct": "either as full-length or enzymatically active fragments; purchased ProQinase GmbH (Reaction Biology)", "in_short": "as §1"}, "BMPR1A": {"biological_target": "T3, BMPR1A (Homo sapiens, UniProt P36894)", "T3 construct": "either as full-length or enzymatically active fragments; purchased ProQinase GmbH (Reaction Biology)", "in_short": "as §1"}, "BRSK1": {"biological_target": "T4, BRSK1 (Homo sapiens, UniProt Q8TDC3)", "T4 construct": "either as full-length or enzymatically active fragments; purchased ProQinase GmbH (Reaction Biology)", "in_short": "as §1"}, "CDK1/CycB1": {"biological_target": "T5, CDK1/CycB1 (Homo sapiens, UniProt P06493)", "T5 construct": "either as full-length or enzymatically active fragments; purchased ProQinase GmbH (Reaction Biology); host or cells: Sf9 insect cells or E. coli", "in_short": "as §1"}, "CDK13/CycK": {"biological_target": "T6, CDK13/CycK (Homo sapiens, UniProt Q14004)", "T6 construct": "either as full-length or enzymatically active fragments; purchased ProQinase GmbH (Reaction Biology)", "in_short": "as §1"}, "CHK1": {"biological_target": "T7, CHK1 (Homo sapiens, UniProt O14757)", "T7 construct": "either as full-length or enzymatically active fragments; purchased ProQinase GmbH (Reaction Biology)", "in_short": "as §1"}, "CK1gamma2": {"biological_target": "T8, CK1gamma2 (Homo sapiens, UniProt P78368)", "T8 construct": "purchased ProQinase GmbH (Reaction Biology)", "in_short": "as §1"}, "CLK4": {"biological_target": "T9, CLK4 (Homo sapiens, UniProt Q9HAZ1)", "T9 construct": "purchased ProQinase GmbH (Reaction Biology)", "in_short": "as §1"}, "EEF2K": {"biological_target": "T10, EEF2K (Homo sapiens, UniProt O00418)", "T10 construct": "either as full-length or enzymatically active fragments; purchased ProQinase GmbH (Reaction Biology)", "in_short": "as §1"}, "ERK7": {"biological_target": "T11, ERK7 (Homo sapiens, UniProt Q8TD08)", "T11 construct": "either as full-length or enzymatically active fragments; purchased ProQinase GmbH (Reaction Biology)", "in_short": "as §1"}, "FRK": {"biological_target": "T12, FRK (Homo sapiens, UniProt P42685)", "T12 construct": "either as full-length or enzymatically active fragments; purchased ProQinase GmbH (Reaction Biology)", "in_short": "as §1"}, "IKKalpha": {"biological_target": "T13, IKKalpha (Homo sapiens, UniProt O15111)", "T13 construct": "either as full-length or enzymatically active fragments; purchased ProQinase GmbH (Reaction Biology)", "in_short": "as §1"}, "IKKepsilon": {"biological_target": "T14, IKKepsilon (Homo sapiens, UniProt Q14164)", "T14 construct": "either as full-length or enzymatically active fragments; purchased ProQinase GmbH (Reaction Biology)", "in_short": "as §1"}, "ITK": {"biological_target": "T15, ITK (Homo sapiens, UniProt Q08881)", "T15 construct": "purchased ProQinase GmbH (Reaction Biology); host or cells: Sf9 insect cells or E. coli (not specified per kinase)", "in_short": "as §1"}, "LRRK2": {"biological_target": "T16, LRRK2 (Homo sapiens, UniProt Q5S007)", "T16 construct": "either as full-length or enzymatically active fragments; purchased ProQinase GmbH (Reaction Biology); host or cells: Sf9 insect cells or E. coli", "in_short": "as §1"}, "MAP3K10": {"biological_target": "T17, MAP3K10 (Homo sapiens, UniProt Q02779)", "T17 construct": "either as full-length or enzymatically active fragments; purchased ProQinase GmbH (Reaction Biology)", "in_short": "as §1"}, "MAP3K9": {"biological_target": "T18, MAP3K9 (Homo sapiens, UniProt P80192)", "T18 construct": "either as full-length or enzymatically active fragments; purchased ProQinase GmbH (Reaction Biology)", "in_short": "as §1"}, "MAP4K4": {"biological_target": "T19, MAP4K4 (Homo sapiens, UniProt O95819)", "T19 construct": "purchased ProQinase GmbH (Reaction Biology)", "in_short": "as §1"}, "MARK4": {"biological_target": "T20, MARK4 (Homo sapiens, UniProt Q96L34)", "T20 construct": "purchased ProQinase GmbH (Reaction Biology)", "in_short": "as §1"}, "MKK6 SDTD": {"biological_target": "T21, MKK6 SDTD (Homo sapiens, UniProt P52564, S207D/T211D)", "T21 construct": "either as full-length or enzymatically active fragments; purchased ProQinase GmbH (Reaction Biology); host or cells: Sf9 insect cells or E. coli (not specified per kinase)", "in_short": "as §1"}, "PDGFRbeta": {"biological_target": "T22, PDGFRbeta (Homo sapiens, UniProt P09619)", "T22 construct": "either as full-length or enzymatically active fragments; purchased ProQinase GmbH (Reaction Biology)", "in_short": "as §1"}, "PHKG2": {"biological_target": "T23, PHKG2 (Homo sapiens, UniProt P15735)", "T23 construct": "either as full-length or enzymatically active fragments; purchased ProQinase GmbH (Reaction Biology)", "in_short": "as §1"}, "PRK1": {"biological_target": "T24, PRK1 (Homo sapiens, UniProt Q16512)", "T24 construct": "purchased ProQinase GmbH (Reaction Biology)", "in_short": "as §1"}, "SGK2": {"biological_target": "T25, SGK2 (Homo sapiens, UniProt Q9HBY8)", "T25 construct": "purchased ProQinase GmbH (Reaction Biology); host or cells: Sf9 insect cells or E. coli (not specified per kinase)", "T25 sequence (Q9HBY8 whole entry)": "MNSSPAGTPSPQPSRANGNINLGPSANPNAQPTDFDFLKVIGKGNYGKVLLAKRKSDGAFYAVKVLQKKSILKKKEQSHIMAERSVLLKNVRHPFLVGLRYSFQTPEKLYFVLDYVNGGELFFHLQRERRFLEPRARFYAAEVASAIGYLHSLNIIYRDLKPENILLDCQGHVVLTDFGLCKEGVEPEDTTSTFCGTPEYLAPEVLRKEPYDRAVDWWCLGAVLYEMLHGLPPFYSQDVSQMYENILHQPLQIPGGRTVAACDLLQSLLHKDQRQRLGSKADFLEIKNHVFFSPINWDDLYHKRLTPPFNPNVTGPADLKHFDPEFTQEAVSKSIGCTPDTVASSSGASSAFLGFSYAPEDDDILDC", "in_short": "as §1"}, "SYK": {"biological_target": "T26, SYK (Homo sapiens, UniProt P43405)", "T26 construct": "either as full-length or enzymatically active fragments; purchased ProQinase GmbH (Reaction Biology)", "in_short": "as §1"}, "TBK1": {"biological_target": "T27, TBK1 (Homo sapiens, UniProt Q9UHD2)", "T27 construct": "either as full-length or enzymatically active fragments; purchased ProQinase GmbH (Reaction Biology)", "T27 sequence (Q9UHD2 whole entry, the tested form may be a part)": "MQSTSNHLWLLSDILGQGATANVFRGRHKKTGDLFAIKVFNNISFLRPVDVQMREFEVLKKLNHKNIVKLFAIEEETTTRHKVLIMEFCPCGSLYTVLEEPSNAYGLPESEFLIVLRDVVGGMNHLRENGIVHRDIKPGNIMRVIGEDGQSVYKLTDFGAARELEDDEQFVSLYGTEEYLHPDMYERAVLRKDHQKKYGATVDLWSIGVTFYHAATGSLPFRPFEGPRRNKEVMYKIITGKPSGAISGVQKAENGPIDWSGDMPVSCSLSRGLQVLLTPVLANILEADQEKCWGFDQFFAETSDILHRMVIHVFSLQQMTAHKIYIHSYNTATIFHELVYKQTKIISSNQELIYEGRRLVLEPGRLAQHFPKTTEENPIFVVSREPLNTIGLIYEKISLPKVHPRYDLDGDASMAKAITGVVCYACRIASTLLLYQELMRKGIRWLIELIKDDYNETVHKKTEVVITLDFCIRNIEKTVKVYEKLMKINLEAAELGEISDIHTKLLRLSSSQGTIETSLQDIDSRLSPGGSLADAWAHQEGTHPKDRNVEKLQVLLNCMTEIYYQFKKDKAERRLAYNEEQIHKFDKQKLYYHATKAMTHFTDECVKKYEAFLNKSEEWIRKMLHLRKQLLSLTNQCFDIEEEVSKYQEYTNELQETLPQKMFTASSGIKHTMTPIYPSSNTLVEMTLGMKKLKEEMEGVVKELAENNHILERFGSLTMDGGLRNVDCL", "in_short": "as §1"}, "TRKB": {"biological_target": "T28, TRKB (Homo sapiens, UniProt Q16620)", "T28 construct": "purchased ProQinase GmbH (Reaction Biology)", "T28 sequence (Q16620 32-822)": "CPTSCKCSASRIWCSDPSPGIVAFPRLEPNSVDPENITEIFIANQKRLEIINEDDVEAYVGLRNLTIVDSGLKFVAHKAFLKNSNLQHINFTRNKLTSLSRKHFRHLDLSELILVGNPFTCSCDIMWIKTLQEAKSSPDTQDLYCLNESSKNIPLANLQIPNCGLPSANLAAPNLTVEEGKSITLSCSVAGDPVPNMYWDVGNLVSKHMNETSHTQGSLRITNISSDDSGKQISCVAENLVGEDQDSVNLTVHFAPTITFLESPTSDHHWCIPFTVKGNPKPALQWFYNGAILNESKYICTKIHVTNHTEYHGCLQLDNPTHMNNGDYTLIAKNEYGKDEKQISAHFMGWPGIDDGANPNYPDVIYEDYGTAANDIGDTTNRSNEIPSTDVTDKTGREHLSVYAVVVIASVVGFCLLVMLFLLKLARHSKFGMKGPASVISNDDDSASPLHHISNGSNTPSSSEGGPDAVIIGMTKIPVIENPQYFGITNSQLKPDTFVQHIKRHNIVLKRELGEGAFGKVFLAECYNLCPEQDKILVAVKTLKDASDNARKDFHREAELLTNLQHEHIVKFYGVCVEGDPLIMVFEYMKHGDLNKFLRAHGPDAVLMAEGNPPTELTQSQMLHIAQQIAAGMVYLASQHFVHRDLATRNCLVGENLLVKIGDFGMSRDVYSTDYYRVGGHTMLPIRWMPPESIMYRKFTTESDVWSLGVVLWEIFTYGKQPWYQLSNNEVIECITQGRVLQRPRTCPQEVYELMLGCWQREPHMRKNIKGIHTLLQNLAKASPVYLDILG", "in_short": "as §1"}, "TRKC": {"biological_target": "T29, TRKC (Homo sapiens, UniProt Q16288)", "T29 construct": "either as full-length or enzymatically active fragments; purchased ProQinase GmbH (Reaction Biology)", "T29 sequence (Q16288 32-839)": "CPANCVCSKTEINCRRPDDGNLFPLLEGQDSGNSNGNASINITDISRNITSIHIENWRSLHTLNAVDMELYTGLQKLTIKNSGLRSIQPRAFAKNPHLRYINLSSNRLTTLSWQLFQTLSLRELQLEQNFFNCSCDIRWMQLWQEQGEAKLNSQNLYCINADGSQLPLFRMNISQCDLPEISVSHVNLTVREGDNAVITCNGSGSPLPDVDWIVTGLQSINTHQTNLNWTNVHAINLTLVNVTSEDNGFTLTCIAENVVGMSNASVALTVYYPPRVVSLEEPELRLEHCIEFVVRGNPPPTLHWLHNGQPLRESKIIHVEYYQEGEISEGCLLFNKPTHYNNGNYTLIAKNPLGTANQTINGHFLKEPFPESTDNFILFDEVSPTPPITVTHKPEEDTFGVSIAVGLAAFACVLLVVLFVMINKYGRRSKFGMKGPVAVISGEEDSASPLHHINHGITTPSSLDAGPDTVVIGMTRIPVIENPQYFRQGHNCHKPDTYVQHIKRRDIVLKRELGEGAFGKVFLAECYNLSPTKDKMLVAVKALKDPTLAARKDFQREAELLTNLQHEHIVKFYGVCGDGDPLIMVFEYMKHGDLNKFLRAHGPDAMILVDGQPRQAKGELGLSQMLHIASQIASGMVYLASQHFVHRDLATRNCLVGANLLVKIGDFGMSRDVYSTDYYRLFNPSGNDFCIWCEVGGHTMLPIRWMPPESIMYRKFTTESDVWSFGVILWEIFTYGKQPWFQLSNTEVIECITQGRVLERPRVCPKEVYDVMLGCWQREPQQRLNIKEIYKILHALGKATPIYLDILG", "in_short": "as §1"}, "WNK2": {"biological_target": "T30, WNK2 (Homo sapiens, UniProt Q9Y3S1)", "T30 construct": "either as full-length or enzymatically active fragments; purchased ProQinase GmbH (Reaction Biology)", "T30 sequence (Q9Y3S1 whole entry, the tested form may be a part)": "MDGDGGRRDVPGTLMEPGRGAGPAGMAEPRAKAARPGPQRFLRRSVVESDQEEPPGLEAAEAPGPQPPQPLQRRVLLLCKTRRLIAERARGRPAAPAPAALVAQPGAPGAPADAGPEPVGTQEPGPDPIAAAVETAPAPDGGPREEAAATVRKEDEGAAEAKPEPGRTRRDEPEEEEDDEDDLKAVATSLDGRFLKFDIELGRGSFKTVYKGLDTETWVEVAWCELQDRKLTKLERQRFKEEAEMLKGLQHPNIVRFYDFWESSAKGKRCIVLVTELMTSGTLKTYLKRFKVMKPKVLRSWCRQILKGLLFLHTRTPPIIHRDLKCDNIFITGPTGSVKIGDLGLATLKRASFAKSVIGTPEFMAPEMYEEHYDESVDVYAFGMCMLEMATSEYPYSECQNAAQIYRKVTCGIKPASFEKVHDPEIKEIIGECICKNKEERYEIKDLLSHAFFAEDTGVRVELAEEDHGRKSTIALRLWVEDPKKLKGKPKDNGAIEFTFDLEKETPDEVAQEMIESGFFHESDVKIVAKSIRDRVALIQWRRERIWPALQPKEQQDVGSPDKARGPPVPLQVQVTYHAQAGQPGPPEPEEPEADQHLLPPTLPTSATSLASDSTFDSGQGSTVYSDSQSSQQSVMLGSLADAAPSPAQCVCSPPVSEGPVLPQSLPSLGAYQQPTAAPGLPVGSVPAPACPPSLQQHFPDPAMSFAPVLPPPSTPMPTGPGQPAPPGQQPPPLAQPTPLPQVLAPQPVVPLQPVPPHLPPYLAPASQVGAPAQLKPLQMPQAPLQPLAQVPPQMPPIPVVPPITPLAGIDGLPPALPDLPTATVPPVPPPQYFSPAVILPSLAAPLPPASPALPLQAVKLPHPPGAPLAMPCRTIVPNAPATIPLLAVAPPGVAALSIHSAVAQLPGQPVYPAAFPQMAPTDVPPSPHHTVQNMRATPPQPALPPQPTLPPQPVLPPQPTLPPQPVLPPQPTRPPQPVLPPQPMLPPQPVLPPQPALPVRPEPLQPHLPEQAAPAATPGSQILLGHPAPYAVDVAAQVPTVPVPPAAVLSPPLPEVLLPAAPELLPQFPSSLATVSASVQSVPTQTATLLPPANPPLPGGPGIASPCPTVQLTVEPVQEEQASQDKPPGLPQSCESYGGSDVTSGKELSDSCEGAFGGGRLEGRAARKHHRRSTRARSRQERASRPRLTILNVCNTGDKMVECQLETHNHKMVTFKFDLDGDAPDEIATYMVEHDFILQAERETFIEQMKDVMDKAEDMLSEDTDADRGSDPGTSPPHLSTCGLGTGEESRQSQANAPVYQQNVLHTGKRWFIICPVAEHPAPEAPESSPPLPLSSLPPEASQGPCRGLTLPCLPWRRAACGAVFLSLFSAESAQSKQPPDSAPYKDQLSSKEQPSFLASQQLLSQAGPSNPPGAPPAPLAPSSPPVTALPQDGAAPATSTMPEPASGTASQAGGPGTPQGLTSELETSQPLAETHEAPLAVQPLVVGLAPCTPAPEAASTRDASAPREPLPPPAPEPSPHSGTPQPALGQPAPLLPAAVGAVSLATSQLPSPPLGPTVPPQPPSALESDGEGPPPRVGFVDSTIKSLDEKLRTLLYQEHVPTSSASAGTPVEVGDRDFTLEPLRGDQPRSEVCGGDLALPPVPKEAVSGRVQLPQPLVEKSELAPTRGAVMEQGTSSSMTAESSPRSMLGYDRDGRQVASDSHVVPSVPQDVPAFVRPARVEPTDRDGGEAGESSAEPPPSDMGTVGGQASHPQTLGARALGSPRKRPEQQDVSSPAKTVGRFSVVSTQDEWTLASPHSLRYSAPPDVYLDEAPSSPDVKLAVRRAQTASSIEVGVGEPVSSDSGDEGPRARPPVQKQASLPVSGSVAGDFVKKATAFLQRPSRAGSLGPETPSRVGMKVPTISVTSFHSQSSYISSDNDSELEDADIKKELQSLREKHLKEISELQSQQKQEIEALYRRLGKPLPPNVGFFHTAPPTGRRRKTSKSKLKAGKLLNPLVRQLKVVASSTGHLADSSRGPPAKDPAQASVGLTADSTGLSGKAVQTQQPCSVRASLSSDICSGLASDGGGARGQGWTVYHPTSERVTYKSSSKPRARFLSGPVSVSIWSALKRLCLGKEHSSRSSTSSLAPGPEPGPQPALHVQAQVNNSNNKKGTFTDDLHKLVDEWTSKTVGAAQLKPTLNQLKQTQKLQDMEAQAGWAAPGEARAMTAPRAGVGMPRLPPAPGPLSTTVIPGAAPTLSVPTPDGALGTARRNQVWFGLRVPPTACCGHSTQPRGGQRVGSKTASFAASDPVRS", "in_short": "as §1"}},
  "data": [
    {"smiles": "C=CC(=O)Nc1ccc(C(=O)N2CC[C@@H](Nc3ncc(C#N)cn3)C2)cc1", "note": "[Compound 4, (R)-N-(4-(3-((5-cyanopyrimidin-2-yl)amino)pyrrolidine-1-carbonyl)phenyl)acrylamide]", "values": [
      {"measurement": "inhibition at 1 µM", "setting": "AKT1", "value": 2, "unit": "%"},
      {"measurement": "inhibition at 1 µM", "setting": "AuroraA", "value": 5, "unit": "%"},
      {"measurement": "inhibition at 1 µM", "setting": "BMPR1A", "value": 2, "unit": "%"},
      {"measurement": "inhibition at 1 µM", "setting": "BRSK1", "value": -4, "unit": "%"},
      {"measurement": "inhibition at 1 µM", "setting": "CDK1/CycB1", "value": 13, "unit": "%"},
      {"measurement": "inhibition at 1 µM", "setting": "CDK13/CycK", "value": 87, "unit": "%"},
      {"measurement": "inhibition at 1 µM", "setting": "CHK1", "value": 3, "unit": "%"},
      {"measurement": "inhibition at 1 µM", "setting": "CK1gamma2", "value": -1, "unit": "%"},
      {"measurement": "inhibition at 1 µM", "setting": "CLK4", "value": -2, "unit": "%"},
      {"measurement": "inhibition at 1 µM", "setting": "EEF2K", "value": 15, "unit": "%"},
      {"measurement": "inhibition at 1 µM", "setting": "ERK7", "value": 17, "unit": "%"},
      {"measurement": "inhibition at 1 µM", "setting": "FRK", "value": -6, "unit": "%"},
      {"measurement": "inhibition at 1 µM", "setting": "IKKalpha", "value": -8, "unit": "%"},
      {"measurement": "inhibition at 1 µM", "setting": "IKKepsilon", "value": 7, "unit": "%"},
      {"measurement": "inhibition at 1 µM", "setting": "ITK", "value": 1, "unit": "%"},
      {"measurement": "inhibition at 1 µM", "setting": "LRRK2", "value": -14, "unit": "%"},
      {"measurement": "inhibition at 1 µM", "setting": "MAP3K10", "value": -5, "unit": "%"},
      {"measurement": "inhibition at 1 µM", "setting": "MAP3K9", "value": -4, "unit": "%"},
      {"measurement": "inhibition at 1 µM", "setting": "MAP4K4", "value": 0, "unit": "%"},
      {"measurement": "inhibition at 1 µM", "setting": "MARK4", "value": -1, "unit": "%"},
      {"measurement": "inhibition at 1 µM", "setting": "MKK6 SDTD", "value": 11, "unit": "%"},
      {"measurement": "inhibition at 1 µM", "setting": "PDGFRbeta", "value": 6, "unit": "%"},
      {"measurement": "inhibition at 1 µM", "setting": "PHKG2", "value": 2, "unit": "%"},
      {"measurement": "inhibition at 1 µM", "setting": "PRK1", "value": -1, "unit": "%"},
      {"measurement": "inhibition at 1 µM", "setting": "SGK2", "value": 1, "unit": "%"},
      {"measurement": "inhibition at 1 µM", "setting": "SYK", "value": 2, "unit": "%"},
      {"measurement": "inhibition at 1 µM", "setting": "TBK1", "value": -4, "unit": "%"},
      {"measurement": "inhibition at 1 µM", "setting": "TRKB", "value": -1, "unit": "%"},
      {"measurement": "inhibition at 1 µM", "setting": "TRKC", "value": -11, "unit": "%"},
      {"measurement": "inhibition at 1 µM", "setting": "WNK2", "value": -8, "unit": "%"}
    ]}
  ]
}
